Test results published in PubChem BioAssay (NCI).
Several values for one entry are separate records, joined by “and”; a condition that tells them apart may be missing. Equal values may be shown once.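 A five-concentration, 48-hour dose response in 96-well plates underlies each endpoint, interpolated linearly between surrounding concentrations. GI50 marks 50% less growth. TGI marks complete inhibition of growth.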

Columns and labels:
Test in all cases: DTP human tumour cell line panel, 48 h
NCI-H226 lung = tested on: NCI-H226 lung
MOLT-4 leukemia = tested on: MOLT-4 leukemia
EKVX NSCLC = tested on: EKVX NSCLC
SK-OV-3 ovarian = tested on: SK-OV-3 ovarian
HS 578T breast = tested on: HS 578T breast
IGROV1 ovarian = tested on: IGROV1 ovarian

Structure (SMILES)	GI50 (NCI-H226 lung)	TGI (NCI-H226 lung)	GI50 (MOLT-4 leukemia)	TGI (MOLT-4 leukemia)	GI50 (EKVX NSCLC)	TGI (EKVX NSCLC)	GI50 (SK-OV-3 ovarian)	TGI (SK-OV-3 ovarian)	GI50 (HS 578T breast)	TGI (HS 578T breast)	GI50 (IGROV1 ovarian)	TGI (IGROV1 ovarian)
C=CCCCc1ccc(C(O)CCCCCCCCCCCC)o1 (stereo not given)	17.8 µM	34.3 µM	19.6 µM	58.8 µM	20.1 µM	37.5 µM	16.4 µM	37.2 µM	25.5 µM	55.2 µM	19.5 µM	44.9 µM
Cc1cccc2c(N)c3ccccc3nc12	1.44 µM	6.19 µM	0.556 µM	11.1 µM	2.76 µM	9.99 µM	2.12 µM	17.4 µM	3.44 µM	17.4 µM	2.18 µM	9.67 µM
Oc1ccc(Cl)cc1CNc1nc2ccccc2[nH]1	19.6 µM	50.2 µM	10.7 µM	> 100 µM			16.8 µM	34.8 µM	13.6 µM	42.1 µM	18.3 µM	41.3 µM
CCCNc1nc2ccccc2c2c1S(=O)(=O)c1ccc(Cl)cc1C2=O	1.51 µM	> 50 µM	1.54 µM	> 50 µM	1.38 µM	> 50 µM	3.06 µM	41.1 µM	1.21 µM	> 50 µM	1.46 µM	> 50 µM
CSc1cccc(NC(=O)OC2CCCCCCCCCCC2)c1		61.7 µM		> 100 µM		57.6 µM		57.9 µM		> 100 µM		> 100 µM
COc1ccc(C2=CC(c3ccc(OC)c(OC)c3)c3c(c4ccccc4oc3=O)O2)cc1OC (stereo not given)	> 21.1 µM	> 100 µM	4.05 µM	> 100 µM	1.52 µM	> 100 µM	2.68 µM	> 100 µM	0.957 µM	> 26.9 µM	2.47 µM	> 31.2 µM
CO[C@H]1CC(c2ccc[nH]2)=N[C@]12O[C@@H](C)C[C@@H]1CCCCCCCc3ccc([nH]3)[C@H]12	0.929 µM	5.25 µM	1.01 µM	13.6 µM	0.975 µM	7.3 µM	4.41 µM	18.9 µM	0.888 µM	7.11 µM	1.38 µM	10.8 µM
OCCN1CCN(CC/C=C2\c3ccccc3Sc3ccc(Cl)cc32)CC1	6.93 µM	22.1 µM	1.76 µM and 2.91 µM	4.03 µM and 8.54 µM	5.78 µM and 6.11 µM	23.7 µM and 21 µM	6.48 µM and 5.76 µM	19.1 µM and 16.9 µM	2.43 µM and 2.25 µM	7.02 µM and 7.94 µM	3.21 µM and 3.51 µM	12.7 µM and 11 µM
CNC(=O)OCC1C2=C(C(=O)C(C)=C(N)C2=O)N2CC3C(N3C)C12OC (stereo not given)		> 100 µM		36.9 µM		> 100 µM		> 100 µM				26.1 µM
Cc1cc2c(cc1N)C(C)C1(CCC(=O)N2Cc2ccccc2)OCCO1 (stereo not given)		> 100 µM		> 100 µM		> 100 µM		> 100 µM		> 100 µM		> 100 µM
O=C1CC(c2ccc(Cl)cc2)Oc2ccccc21 (stereo not given)		33.6 µM				54.8 µM		61 µM		54.8 µM		40.8 µM
C/C=C(\C)C(=O)N[C@H]1C(O)C[C@]2(C)C3CC[C@@]4(C)C(CC[C@@H]4C(C)N(C)C)C3CCC2C1O (stereo not given in full)	12.1 µM	> 70.2 µM	4.06 µM	17.2 µM	9.38 µM	> 50.9 µM	16.1 µM	42.4 µM	6.56 µM	29.6 µM	13.3 µM	> 43.7 µM
O=C1NCCS(=O)(=O)/C1=C\C=C\c1cccc(C(F)(F)F)c1	2.75 µM	7.65 µM	2.05 µM	9.54 µM	4.31 µM	16.5 µM	5.83 µM	18.3 µM	6.81 µM	30.7 µM	2.61 µM	11.8 µM
COc1cc2c3c(n(CCCN=[N+]=[N-])c(=O)c2cc1OC)-c1ccc(N(C)C)cc1C3=O	> 100 µM	> 100 µM	> 100 µM	> 100 µM	> 100 µM	> 100 µM	> 100 µM	> 100 µM	> 100 µM	> 100 µM	> 100 µM	> 100 µM
COc1ccc(Nc2cc(C)nc(N3CCN(c4ccnc5cc(Cl)ccc45)CC3)n2)cc1	4.7 µM	> 100 µM	2.9 µM	19.7 µM			4.81 µM	> 100 µM	4.04 µM	> 100 µM	4.39 µM	> 100 µM
O=C(Nc1ccc(I)cc1F)c1cc(Cl)ccc1O	1.17 µM	4.89 µM	1.44 µM	5.22 µM	1.03 µM	6.81 µM	0.615 µM	2.64 µM	0.325 µM	3.19 µM	0.36 µM	> 100 µM
Cc1cccc(Nc2cnc(N)nc2N)c1		> 100 µM		> 100 µM		> 100 µM		> 100 µM				> 100 µM
O=C(Nc1ccc(Cl)c(Cl)c1)OCCN1c2ccccc2Sc2ccccc21				> 10 µM				> 10 µM		> 10 µM		> 10 µM

Structure (SMILES)	GI50 (NCI-H226 lung)	TGI (NCI-H226 lung)	GI50 (MOLT-4 leukemia)	TGI (MOLT-4 leukemia)	GI50 (EKVX NSCLC)	TGI (EKVX NSCLC)	GI50 (SK-OV-3 ovarian)	TGI (SK-OV-3 ovarian)	GI50 (HS 578T breast)	TGI (HS 578T breast)	GI50 (IGROV1 ovarian)	TGI (IGROV1 ovarian)
Cc1ccc(-c2nc(N3CCCNCC3)c3oc(-c4ccc(C)cc4)nc3n2)cc1			1.77 µM	3.59 µM	4.09 µM	> 100 µM	17.8 µM	31.6 µM	12.6 µM	31.9 µM	1.62 µM	3.19 µM
O=S(=O)(NCCNc1nccc(-c2c(-c3ccc(F)cc3)nc3sccn23)n1)c1ccccc1	7.73 µM	> 100 µM	4.84 µM	57.5 µM			10.8 µM	> 100 µM	13.6 µM	> 100 µM	2.99 µM	32.7 µM
CC(C)COC(=O)c1ccc2[nH]c(O)c(C=Nc3ccc(S(N)(=O)=O)cc3)c2c1	1.73 µM	6.79 µM	1.68 µM	11 µM	3.97 µM	15.6 µM	2.19 µM	6.25 µM	1.45 µM	6.07 µM	1.75 µM	8.01 µM
CC(Br)C(=O)Nc1ccc(C(=O)O)c(O)c1 (stereo not given)		> 100 µM		> 100 µM		> 100 µM		> 100 µM		> 100 µM		> 100 µM
Cc1c(Sc2ccccc2)[n+](=O)c2cc(Cl)c(Cl)cc2n1[O-]	> 100 µM	> 100 µM	15 µM	33.3 µM	> 100 µM	> 100 µM	> 100 µM	> 100 µM	> 100 µM	> 100 µM	15.5 µM	38 µM
COc1ccc(Nc2c3ccccc3nc3[nH]c4ccccc4c23)cc1	7.65 µM	> 50 µM	2.35 µM	> 50 µM	10.9 µM	> 50 µM			21 µM	> 50 µM	16.9 µM	> 50 µM
O=[N+]([O-])c1ccc(S(=O)(=O)Cc2ccccc2)c2nonc12		> 100 µM		83.8 µM		41.8 µM		> 100 µM		58.5 µM		37.3 µM
CN1C(Cl)=NS(=O)(=O)c2ccccc21		> 100 µM		> 100 µM		> 100 µM		> 100 µM		> 100 µM		> 100 µM
CCc1nc(N)nc(N)c1-c1ccc(Cl)c(N=CN(C)C)c1		> 100 µM		> 100 µM		> 100 µM		> 100 µM		> 100 µM		> 100 µM
C=CS(=O)(=O)CCN1CC1				> 10 µM				> 10 µM		> 10 µM		> 10 µM
CC1=C(/C=C/C(C)=C/C=C/C(C)=C/CO)C(C)(C)CCC1		50.9 µM		44.4 µM		> 100 µM		> 100 µM				57.7 µM
Cn1c(=O)c(Oc2ccc(F)cc2F)cc2cnc(NCCS(C)(=O)=O)nc21	> 25 µM	> 25 µM	> 25 µM	> 25 µM			> 25 µM	> 25 µM	> 25 µM	> 25 µM	> 25 µM	> 25 µM
COc1ccc(-c2nn(-c3cccc(NC(=O)c4ccc(N5CCOCC5)c(C(F)(F)F)c4)c3)cc2-c2ccncc2)cc1Cl	21.3 µM	> 50 µM	4.5 µM	> 50 µM			32.8 µM	> 50 µM	2.65 µM	> 50 µM	> 50 µM	> 50 µM
CN(/N=N/c1nc(OCc2ccccc2)c2[nH]cnc2n1)C(=O)Oc1ccc([N+](=O)[O-])cc1					11.5 µM	35.9 µM	10.4 µM	28.6 µM	8.61 µM	29.6 µM	12.2 µM	31.2 µM
COc1ccc(OC)c(Nc2nc(-c3c(C)nc4sccn34)cs2)c1	19.2 µM	> 100 µM	> 100 µM	> 100 µM			24.6 µM	> 100 µM	5.3 µM	> 100 µM	23.2 µM	> 100 µM
O=C1OC(OCC#CCOC2OC(=O)C(Cl)=C2Cl)C(Cl)=C1Cl (stereo not given)				6.17 µM		40.1 µM				50.5 µM		29.9 µM
CCN(CC)CCOc1ccc(C(=O)/C=C\c2ccc(Cl)cc2Cl)cc1	11.3 µM	26.6 µM			12.6 µM	25.1 µM	11.8 µM	24.3 µM	9.47 µM	32 µM	4.63 µM	22.4 µM
